Entries after “also recorded” stand apart in the source; their conditions may differ.
Legend:
L428 cells = assay: in vitro
How it was run: (§1)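 30,000 cells/well exposed to coumaperine derivatives at varying concentrations or DMSO vehicle for 48 h at 37 °C, 5% CO2, then XTT added for 2 h. Absorbance at 450 nm minus 650 nm and blank, normalized to DMSO-treated cells (100% viability); triplicate, two independent tests, mean+SD.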

in vitro = details: human, LC50
How it was run: as §1

P. aeruginosa biofilm = P. aeruginosa biofilm formation under flow conditions (CLSM, IMARIS); type: cell-based
Protocol: FIGS. 15A-15B include fluorescent micrographs and a vertical bar graph showing that Pl-18 inhibits P. aeruginosa biofilm formation. The biofilm was grown under continuous flow conditions for 72 hr with 10 μM, 40 μM PL-18 or 0.04% DMSO. CLSM images visualize viable bacteria stained green and dead bacteria red using the BacLight® Dead/Live Kit. Scanned areas were 318 μm×318 μm. (15A) IMARIS images. Scale bar is 50 μm. (15B) A graph showing the mean±SD of the biofilm volume generated from three independent sets of flow-cell experiments. Two-way ANOVA Bonferroni's multiple comparisons test, 95% confidence interval (p-values ***≤0.0002).
The anti-biofilm activity of PL-18 was tested in flow conditions for 72 hours. The biofilm was visualized by CLSM and quantified using the IMARIS software.

[1] = test system: Agrobacterium tumefaciens (KYC55); assay: Quorum sensing inhibition test with bio-reporter KYC55 (TLC overlay); type: cell-based; for Degree of quorum sensing inhibition (QSI), KYC55: key: −: no inhibition; +: low inhibition; ++: medium inhibition; +++: strong inhibition
How it was run: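 Compounds (40 mM in acetonitrile, 20 μl) were spotted on TLC and overlaid with soft agar reporter cultures, incubated overnight at 30 °C. CV026 was in LB with 500 nM 3-oxo-C6 (purple pigment), and KYC55 was in AT medium with 5 nM 3-oxo-C8 and 60 μg/ml X-gal (blue). Inhibition zone diameter was measured.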

elastase = assay: Elastase secretion by P. aeruginosa; type: cell-based; details: data not shown
rhlR-rhlI system = assay: Bioluminescence QS reporter bacteria, rhlRI; type: cell-based, P. aeruginosa; details: Pseudomonas aeruginosa
Protocol: FIGS. 13A-13C include vertical bar graphs showing the dose response inhibition of QS by PL-18. Bioluminescence indicator bacteria containing the P. aeruginosa reporter genes rhlRI (13A) and lasRI (13B) were used. The reporter bacteria were incubated with and range of PL-18 concentrations or DMSO, together with (+AI) or without (−AI) the proper auto-inducer. Bioluminescence was recorded at 15 min intervals for 10 hrs at 37° C. The maximum signal in each group was normalized to the inducer's bioluminescence maximum signal with 0.5% DMSO. Mean±SD, One-way ANOVA followed by Dunett's multiple comparisons test was performed (p-value ***≤0.0002). N=9 (triplicate samples in three independent experiments). (13C) RT-qPCR of P. aeruginosa (PA01) QS genes. PA01 was co-incubated with two doses of PL-18 for seven hours, lysed and total RNA was extracted and converted to cDNA followed by target genes qPCR amplification. N≥16, Mean±SD. Two-way ANOVA, 95% confidence interval.
The inhibition of rhlR-rhlI system was slightly better than the inhibition of lasR-lasI. […] The relative transcription levels of QS genes lasR, lasI, rhlR and rhlI, was determined by RT-qPCR.

P. aeruginosa = assay: Motility of P. aeruginosa; type: cell-based; details: data not shown

SMILES: COc1cc(/C=C/C(=O)N2CCC=CC2=O)cc(O)c1O [PL-18, Dihydroxy piperlongumine]
- Cytotoxic (L428 cells): +
- CC50 at 48 h (in vitro): 9.3 µM
- inhibition at 40 µM (P. aeruginosa biofilm; Pseudomonas aeruginosa, 72 h, read-out: Inhibition of P. aeruginosa biofilm formation): 85%
- Attenuation of biofilm formation, in words (P. aeruginosa biofilm; running text): effectively attenuate
- Degree of quorum sensing inhibition (QSI), KYC55 ([1]; Table 2, piperlongumine derivatives): +++
- QSI activity against KYC55, in words ([1]; running text): strong quorum sensing inhibition
- Inhibition of elastase secretion (elastase): not shown to inhibit; also recorded: not found to inhibit
- IC50 (rhlR-rhlI system; read-out: IC50, rhlR-rhlI): 18 µM
- inhibition at 160 µM (rhlR-rhlI system; read-out: Inhibition of rhlR-rhlI): 85.6%
- Inhibition of motility (P. aeruginosa): not shown to inhibit; also recorded: not found to inhibit
